In patent publication US11326138B2, “Cell culture device and methods of use thereof” (University of Kentucky Research Foundation, priority 2017, dated 2022):

What was measured:
[1] = Incubation of a PDMS surface in contact with rhodamine solution; format: physicochemical; conditions: 1.5 wt % solution of rhodamine, over 180 seconds
[2] = modelled value for rhodamine in 1.5% agarose hydrogel medium; cited from earlier work
[3] = Solute diffusion from microfluidic channels into agarose hydrogel (time-lapse fluorescence); format: physicochemical; conditions: solution pumped through channels at 25 μL/min; 1.5 wt % agarose
Protocol: To illustrate a dynamic solute exchange between the hydrogel and the fluid in the microchannels, a liquid suspension of 1.5 wt % agarose in DI water was pipetted into the open reservoir of the microfluidic device. After solidification of the agarose, water containing 1.0 wt % rhodamine was introduced into the inlet using a syringe pump at a constant volumetric flowrate of 25 μL/min. Time-lapse images were taken every 30 seconds using a TI-E Nikon microscope and the fluorescent intensity was measured in the resulting images using NIS-Elements software in order to track the rhodamine diffusion from the channels into the agarose hydrogel.
Water containing 1.0 wt % rhodamine (0.48 kDa) was introduced into the microfluidic channels at a flowrate of 25 μL/min. […] Florescent intensity at two points—one directly beneath a PDMS wall and another centred beneath a microfluidic channel—was tracked over time.

diffusion into PDMS [1]: no detectable diffusion | diffusion from microchannels into adjacent hydrogel [3]: diffused into the adjacent hydrogel
Substance: rhodamine
diffusion coefficient D [2]: 4×10^−6 cm^2/sec
